Laboratory results from PMC9005681, “Use of AD Informer Set compounds to explore validity of novel targets in Alzheimer's disease pathology” (Alzheimer's & Dementia : Translational Research & Clinical …, 2022).
Several values for one entry are separate records, joined by “and”; a condition that tells them apart may be missing. Identical values can stand only once.

Experiments:
Experiment in all cases: PDSP GPCR panel primary binding assays at 10 μM
[1] = target: T1, cloned human or rodent CNS receptors, channels, and transporters (PDSP panel) (Homo sapiens, UniProt P31645); conditions: SERT, primary assay; for Mean %: mean inhibition; for Inhibition 1: replicate 1; for Inhibition 2: replicate 2; for Inhibition 3: replicate 3; for Inhibition 4: replicate 4
T1 construct: expressed in transfected cells
T1 sequence (P31645 whole entry): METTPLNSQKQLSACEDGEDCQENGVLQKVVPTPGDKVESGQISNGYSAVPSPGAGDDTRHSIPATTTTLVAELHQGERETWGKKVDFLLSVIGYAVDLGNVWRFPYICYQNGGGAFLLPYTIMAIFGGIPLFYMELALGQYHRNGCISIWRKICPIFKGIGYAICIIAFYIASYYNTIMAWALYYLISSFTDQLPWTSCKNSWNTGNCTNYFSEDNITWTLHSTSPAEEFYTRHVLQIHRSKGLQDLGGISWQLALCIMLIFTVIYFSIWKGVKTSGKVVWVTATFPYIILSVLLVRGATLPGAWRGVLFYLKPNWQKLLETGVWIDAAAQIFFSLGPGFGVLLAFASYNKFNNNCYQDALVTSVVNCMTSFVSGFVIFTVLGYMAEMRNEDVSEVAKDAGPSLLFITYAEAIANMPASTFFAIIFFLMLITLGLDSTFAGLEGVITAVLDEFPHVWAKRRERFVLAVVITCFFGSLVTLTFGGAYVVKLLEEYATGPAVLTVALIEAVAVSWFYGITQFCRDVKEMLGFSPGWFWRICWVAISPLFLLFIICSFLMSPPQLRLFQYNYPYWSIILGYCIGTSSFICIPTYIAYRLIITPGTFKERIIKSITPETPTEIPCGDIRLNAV
Method in brief: (§1)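 Secondary binding curves (11 points, triplicate) were run at targets where the 10 μM primary screen, done in quadruplicate, displaced over 50% of radio-labelled standard ligand on average. Primary screening covered 46–47 cloned human or rodent CNS targets; H3, PBR and GABAA were not followed up.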

[2] = target: T2, cloned human or rodent CNS receptors, channels, and transporters (PDSP panel) (Homo sapiens, UniProt P28335); conditions: 5-HT2C, primary assay; for Mean %: mean inhibition; for Inhibition 1: replicate 1; for Inhibition 2: replicate 2; for Inhibition 3: replicate 3; for Inhibition 4: replicate 4
T2 construct: expressed in transfected cells
T2 sequence (P28335 33-458): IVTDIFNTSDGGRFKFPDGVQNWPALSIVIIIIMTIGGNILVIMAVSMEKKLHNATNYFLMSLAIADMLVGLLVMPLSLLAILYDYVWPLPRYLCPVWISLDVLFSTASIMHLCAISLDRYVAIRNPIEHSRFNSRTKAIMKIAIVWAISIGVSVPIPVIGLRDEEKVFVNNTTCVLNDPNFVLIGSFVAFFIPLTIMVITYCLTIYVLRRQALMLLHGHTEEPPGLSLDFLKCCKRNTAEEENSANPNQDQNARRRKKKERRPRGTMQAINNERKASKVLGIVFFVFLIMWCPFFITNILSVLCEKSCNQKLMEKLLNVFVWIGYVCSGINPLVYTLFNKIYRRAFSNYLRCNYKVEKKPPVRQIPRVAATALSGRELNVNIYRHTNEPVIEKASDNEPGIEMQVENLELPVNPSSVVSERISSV
Method in brief: as §1

[3] = target: T3, cloned human or rodent CNS receptors, channels, and transporters (PDSP panel) (Homo sapiens, UniProt Q01959); conditions: DAT, primary assay; for Mean %: mean inhibition; for Inhibition 1: replicate 1; for Inhibition 2: replicate 2; for Inhibition 3: replicate 3; for Inhibition 4: replicate 4
T3 construct: expressed in transfected cells
T3 sequence (Q01959 whole entry): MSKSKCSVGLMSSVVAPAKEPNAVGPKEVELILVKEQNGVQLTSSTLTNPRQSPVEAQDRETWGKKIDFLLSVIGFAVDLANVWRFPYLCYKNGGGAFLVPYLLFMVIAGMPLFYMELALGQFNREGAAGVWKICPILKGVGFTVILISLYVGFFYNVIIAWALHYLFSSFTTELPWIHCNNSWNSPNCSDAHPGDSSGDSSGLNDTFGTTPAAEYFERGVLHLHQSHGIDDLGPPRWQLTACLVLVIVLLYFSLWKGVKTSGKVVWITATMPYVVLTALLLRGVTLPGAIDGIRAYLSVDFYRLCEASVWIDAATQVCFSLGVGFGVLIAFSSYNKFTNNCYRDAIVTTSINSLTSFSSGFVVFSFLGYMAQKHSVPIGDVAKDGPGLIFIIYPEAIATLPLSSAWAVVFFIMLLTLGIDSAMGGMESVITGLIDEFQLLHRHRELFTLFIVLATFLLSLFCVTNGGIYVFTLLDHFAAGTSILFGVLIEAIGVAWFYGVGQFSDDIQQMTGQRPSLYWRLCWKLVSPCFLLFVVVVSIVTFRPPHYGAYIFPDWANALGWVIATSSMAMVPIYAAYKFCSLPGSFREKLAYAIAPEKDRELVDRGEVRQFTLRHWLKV
Method in brief: as §1

[4] = target: T4, cloned human or rodent CNS receptors, channels, and transporters (PDSP panel) (Rattus norvegicus, UniProt P16257); conditions: PBR, primary assay; for Inhibition 1: replicate 1; for Inhibition 2: replicate 2; for Inhibition 3: replicate 3; for Inhibition 4: replicate 4
T4 construct: expressed in transfected cells
Method in brief: as §1

[5] = target: T5, cloned human or rodent CNS receptors, channels, and transporters (PDSP panel) (Homo sapiens, UniProt P28221); conditions: 5-HT1D, primary assay; for Mean %: mean inhibition; for Inhibition 1: replicate 1; for Inhibition 2: replicate 2; for Inhibition 3: replicate 3; for Inhibition 4: replicate 4
T5 construct: expressed in transfected cells
T5 sequence (P28221 whole entry): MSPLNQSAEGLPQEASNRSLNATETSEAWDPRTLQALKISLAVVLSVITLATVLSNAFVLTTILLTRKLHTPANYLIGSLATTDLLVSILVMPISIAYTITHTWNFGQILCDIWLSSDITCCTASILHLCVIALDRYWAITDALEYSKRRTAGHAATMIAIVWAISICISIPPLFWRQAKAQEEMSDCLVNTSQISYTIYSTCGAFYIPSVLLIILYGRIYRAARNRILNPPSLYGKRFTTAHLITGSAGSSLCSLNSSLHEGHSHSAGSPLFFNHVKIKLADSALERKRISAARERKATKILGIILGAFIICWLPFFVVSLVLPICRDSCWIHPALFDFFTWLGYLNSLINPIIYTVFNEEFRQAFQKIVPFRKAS
Method in brief: as §1

[6] = target: T6, cloned human or rodent CNS receptors, channels, and transporters (PDSP panel) (Homo sapiens, UniProt P28222); conditions: 5-HT1B, primary assay; for Mean %: mean inhibition; for Inhibition 1: replicate 1; for Inhibition 2: replicate 2; for Inhibition 3: replicate 3; for Inhibition 4: replicate 4
T6 construct: expressed in transfected cells
T6 sequence (P28222 whole entry): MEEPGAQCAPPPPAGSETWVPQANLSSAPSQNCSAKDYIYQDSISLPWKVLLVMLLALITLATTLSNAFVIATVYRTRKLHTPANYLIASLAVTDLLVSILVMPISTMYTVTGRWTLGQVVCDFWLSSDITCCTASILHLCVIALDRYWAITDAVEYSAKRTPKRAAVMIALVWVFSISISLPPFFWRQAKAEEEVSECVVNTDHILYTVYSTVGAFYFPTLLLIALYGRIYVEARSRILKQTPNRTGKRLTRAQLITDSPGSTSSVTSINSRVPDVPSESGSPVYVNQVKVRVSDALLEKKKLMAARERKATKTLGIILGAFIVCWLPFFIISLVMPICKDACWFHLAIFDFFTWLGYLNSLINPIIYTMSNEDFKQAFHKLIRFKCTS
Method in brief: as §1

[7] = target: T7, cloned human or rodent CNS receptors, channels, and transporters (PDSP panel) (Homo sapiens, UniProt P34969); conditions: 5-HT7A, primary assay; for Mean %: mean inhibition; for Inhibition 1: replicate 1; for Inhibition 2: replicate 2; for Inhibition 3: replicate 3; for Inhibition 4: replicate 4
T7 construct: expressed in transfected cells
T7 sequence (P34969 whole entry): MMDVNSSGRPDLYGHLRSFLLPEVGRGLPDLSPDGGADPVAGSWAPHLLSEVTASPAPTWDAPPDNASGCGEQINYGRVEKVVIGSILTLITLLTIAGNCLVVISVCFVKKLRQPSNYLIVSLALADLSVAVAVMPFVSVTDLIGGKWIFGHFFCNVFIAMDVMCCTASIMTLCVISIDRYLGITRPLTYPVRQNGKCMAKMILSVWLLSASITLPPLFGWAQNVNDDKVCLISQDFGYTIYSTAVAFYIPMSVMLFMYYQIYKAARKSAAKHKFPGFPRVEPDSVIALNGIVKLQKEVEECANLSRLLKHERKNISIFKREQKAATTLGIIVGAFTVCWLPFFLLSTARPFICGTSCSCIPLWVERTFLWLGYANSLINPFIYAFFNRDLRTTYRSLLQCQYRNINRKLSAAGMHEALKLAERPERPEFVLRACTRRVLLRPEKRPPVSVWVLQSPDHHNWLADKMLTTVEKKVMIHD
Method in brief: as §1

[8] = target: T8, cloned human or rodent CNS receptors, channels, and transporters (PDSP panel) (Homo sapiens, UniProt P28566); conditions: 5-HT1E, primary assay; for Mean %: mean inhibition; for Inhibition 1: replicate 1; for Inhibition 2: replicate 2; for Inhibition 3: replicate 3; for Inhibition 4: replicate 4
T8 construct: expressed in transfected cells
T8 sequence (P28566 whole entry): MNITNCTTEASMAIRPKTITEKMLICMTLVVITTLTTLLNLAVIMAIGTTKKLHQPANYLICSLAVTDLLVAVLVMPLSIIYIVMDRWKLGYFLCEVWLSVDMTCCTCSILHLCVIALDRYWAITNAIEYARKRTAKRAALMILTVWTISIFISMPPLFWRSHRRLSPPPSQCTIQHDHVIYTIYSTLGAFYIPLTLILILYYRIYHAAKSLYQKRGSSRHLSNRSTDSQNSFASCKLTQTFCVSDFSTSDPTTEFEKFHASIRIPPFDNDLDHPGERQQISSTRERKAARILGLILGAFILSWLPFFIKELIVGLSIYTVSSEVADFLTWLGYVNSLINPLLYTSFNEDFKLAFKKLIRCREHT
Method in brief: as §1

[9] = target: T9, cloned human or rodent CNS receptors, channels, and transporters (PDSP panel) (Homo sapiens, UniProt P35367); conditions: H1, primary assay; for Mean %: mean inhibition; for Inhibition 1: replicate 1; for Inhibition 2: replicate 2; for Inhibition 3: replicate 3; for Inhibition 4: replicate 4
T9 construct: expressed in transfected cells
T9 sequence (P35367 whole entry): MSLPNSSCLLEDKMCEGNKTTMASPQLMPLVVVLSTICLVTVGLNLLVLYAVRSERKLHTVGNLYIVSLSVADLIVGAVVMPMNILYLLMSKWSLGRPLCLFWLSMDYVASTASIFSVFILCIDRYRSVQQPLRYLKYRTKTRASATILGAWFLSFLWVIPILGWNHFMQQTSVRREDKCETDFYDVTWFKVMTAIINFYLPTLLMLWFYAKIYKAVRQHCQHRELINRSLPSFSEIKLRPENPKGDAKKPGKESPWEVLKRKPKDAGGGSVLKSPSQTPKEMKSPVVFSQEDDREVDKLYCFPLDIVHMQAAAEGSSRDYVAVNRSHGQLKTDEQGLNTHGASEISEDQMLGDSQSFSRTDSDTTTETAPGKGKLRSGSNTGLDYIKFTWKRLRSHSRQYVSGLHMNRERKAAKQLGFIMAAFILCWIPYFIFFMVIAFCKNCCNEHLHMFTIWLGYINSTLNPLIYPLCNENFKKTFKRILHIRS
Method in brief: as §1

[10] = target: T10, cloned human or rodent CNS receptors, channels, and transporters (PDSP panel) (Homo sapiens, UniProt P14416); conditions: D2, primary assay; for Mean %: mean inhibition; for Inhibition 1: replicate 1; for Inhibition 2: replicate 2; for Inhibition 3: replicate 3; for Inhibition 4: replicate 4
T10 construct: expressed in transfected cells
T10 sequence (P14416 whole entry): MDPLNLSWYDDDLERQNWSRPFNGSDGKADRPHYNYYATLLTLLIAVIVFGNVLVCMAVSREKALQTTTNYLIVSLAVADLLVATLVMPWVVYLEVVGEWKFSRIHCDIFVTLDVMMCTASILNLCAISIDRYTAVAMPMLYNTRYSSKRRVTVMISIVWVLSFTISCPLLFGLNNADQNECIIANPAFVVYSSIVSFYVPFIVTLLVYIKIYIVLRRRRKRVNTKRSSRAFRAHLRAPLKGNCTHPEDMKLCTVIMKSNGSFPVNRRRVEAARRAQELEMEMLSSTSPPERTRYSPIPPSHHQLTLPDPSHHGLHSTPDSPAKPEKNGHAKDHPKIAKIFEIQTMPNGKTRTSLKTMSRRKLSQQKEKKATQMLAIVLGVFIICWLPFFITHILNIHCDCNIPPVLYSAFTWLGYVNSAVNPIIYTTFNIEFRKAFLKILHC
Method in brief: as §1

[11] = target: T11, cloned human or rodent CNS receptors, channels, and transporters (PDSP panel) (Homo sapiens, UniProt P18089); conditions: Alpha2B, primary assay; for Mean %: mean inhibition; for Inhibition 1: replicate 1; for Inhibition 2: replicate 2; for Inhibition 3: replicate 3; for Inhibition 4: replicate 4
T11 construct: expressed in transfected cells
T11 sequence (P18089 1-450): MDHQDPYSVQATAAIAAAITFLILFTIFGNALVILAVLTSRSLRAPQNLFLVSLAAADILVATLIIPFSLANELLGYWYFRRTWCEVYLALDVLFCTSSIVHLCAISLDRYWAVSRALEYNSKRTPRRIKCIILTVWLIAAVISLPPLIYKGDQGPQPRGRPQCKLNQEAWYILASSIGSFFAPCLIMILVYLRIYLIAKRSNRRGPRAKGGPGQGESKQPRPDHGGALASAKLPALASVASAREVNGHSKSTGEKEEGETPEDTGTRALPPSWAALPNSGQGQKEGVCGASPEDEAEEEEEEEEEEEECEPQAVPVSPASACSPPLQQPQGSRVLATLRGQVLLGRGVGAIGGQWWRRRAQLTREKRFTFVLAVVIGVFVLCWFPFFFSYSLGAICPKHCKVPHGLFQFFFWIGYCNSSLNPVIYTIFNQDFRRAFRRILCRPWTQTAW
Method in brief: as §1

[12] = target: T12, cloned human or rodent CNS receptors, channels, and transporters (PDSP panel) (Homo sapiens, UniProt P35462); conditions: D3, primary assay; for Mean %: mean inhibition; for Inhibition 1: replicate 1; for Inhibition 2: replicate 2; for Inhibition 3: replicate 3; for Inhibition 4: replicate 4
T12 construct: expressed in transfected cells
T12 sequence (P35462 whole entry): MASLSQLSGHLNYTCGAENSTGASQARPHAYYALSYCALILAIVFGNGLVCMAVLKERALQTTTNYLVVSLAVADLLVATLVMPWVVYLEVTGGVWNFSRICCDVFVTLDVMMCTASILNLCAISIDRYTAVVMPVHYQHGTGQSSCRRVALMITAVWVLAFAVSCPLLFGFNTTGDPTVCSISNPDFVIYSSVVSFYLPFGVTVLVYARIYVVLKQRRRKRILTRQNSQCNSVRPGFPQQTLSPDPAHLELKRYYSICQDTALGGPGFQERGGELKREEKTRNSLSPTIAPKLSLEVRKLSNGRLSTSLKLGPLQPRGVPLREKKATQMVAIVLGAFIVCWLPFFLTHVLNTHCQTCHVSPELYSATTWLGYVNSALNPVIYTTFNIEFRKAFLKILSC
Method in brief: as §1

## O=C(NC1CC1)C(=O)C(Cc1ccccc1)NC(=O)[C@H]1CCC(=O)N1Cc1ccccc1 (some centres unmarked) [UNC10302676A, ABT-957 (Alicapistat)]
[1]
  Mean %: -3.96% and -1.74%
  Inhibition 1: 1.77% and -7.1%
  Inhibition 2: -9.07% and 1.55%
  Inhibition 3: -5.87% and 7.1%
  Inhibition 4: -2.67% and -8.51%
[2]
  Mean %: -3.07%
  Inhibition 1: 14.23%
  Inhibition 2: -14.23%
  Inhibition 3: -2.94%
  Inhibition 4: -9.33%
[3]
  Mean %: 30.14%
  Inhibition 1: 25.06%
  Inhibition 2: 27.22%
  Inhibition 3: 40.62%
  Inhibition 4: 27.66%
[4]
  Inhibition 1: 2.97% and 17.9%
  Inhibition 2: -4.68% and 2.11%
  Inhibition 3: 1.91% and 4.11%
  Inhibition 4: -8.81% and 7.78%
[5]
  Mean %: 14.89%
  Inhibition 1: 25.3%
  Inhibition 2: 16.14%
  Inhibition 3: 8.22%
  Inhibition 4: 9.89%
[6]
  Mean %: 8.92%
  Inhibition 1: 9.16%
  Inhibition 2: 10.49%
  Inhibition 3: 8.83%
  Inhibition 4: 7.18%
[7]
  Mean %: 15.15%
  Inhibition 1: 8.6%
  Inhibition 2: 21.46%
  Inhibition 3: 9.06%
  Inhibition 4: 21.46%
[8]
  Mean %: -4.73%
  Inhibition 1: 3.28%
  Inhibition 2: -0.45%
  Inhibition 3: -9.69%
  Inhibition 4: -12.07%
[9]
  Mean %: 47.25%
  Inhibition 1: 60.11%
  Inhibition 2: 50.46%
  Inhibition 3: 44.57%
  Inhibition 4: 33.86%
[10]
  Mean %: -21.21%
  Inhibition 1: -14.25%
  Inhibition 2: -31.51%
  Inhibition 3: -11.38%
  Inhibition 4: -27.71%
[11]
  Mean %: 8.48%
  Inhibition 1: 16.01%
  Inhibition 2: 17.34%
  Inhibition 3: -9.53%
  Inhibition 4: 10.08%
[12]
  Mean %: 10.85%
  Inhibition 1: 10.26%
  Inhibition 2: -6.41%
  Inhibition 3: 23.48%
  Inhibition 4: 16.06%

## CNc1nc(C)nc(N[C@H]2CCC[C@@H](C(=O)NCc3ccc(C#N)cc3C(F)(F)F)C2)n1 [UNC10302679A, GSK2256294A]
[1]
  Mean %: 7.19% and 15.11%
  Inhibition 1: 10.02% and 22.3%
  Inhibition 2: -5.87% and 16.69%
  Inhibition 3: 7.61% and 10.49%
  Inhibition 4: 16.99% and 10.96%
[2]
  Mean %: -14.6%
  Inhibition 1: 12.76%
  Inhibition 2: -11.29%
  Inhibition 3: -33.87%
  Inhibition 4: -26.01%
[3]
  Mean %: 54.13%
  Inhibition 1: 56.61%
  Inhibition 2: 53.37%
  Inhibition 3: 54.99%
  Inhibition 4: 51.53%
[4]; mean inhibition
  Mean %: 61.99% and 50.52%
[4]
  Inhibition 1: 64.51% and 57.62%
  Inhibition 2: 61.79% and 51.24%
  Inhibition 3: 61.7% and 45.98%
  Inhibition 4: 59.94% and 47.25%
[5]
  Mean %: 6.14%
  Inhibition 1: 26.13%
  Inhibition 2: 1.56%
  Inhibition 3: 1.56%
  Inhibition 4: -4.69%
[6]
  Mean %: -2.56%
  Inhibition 1: 6.88%
  Inhibition 2: -14.35%
  Inhibition 3: 0.2%
  Inhibition 4: -2.95%
[7]
  Mean %: 35.21%
  Inhibition 1: 10.61%
  Inhibition 2: 51.06%
  Inhibition 3: 19.91%
  Inhibition 4: 59.27%
[8]
  Mean %: 1.71%
  Inhibition 1: 1.79%
  Inhibition 2: 6.56%
  Inhibition 3: 8.79%
  Inhibition 4: -10.29%
[9]
  Mean %: 71.69%
  Inhibition 1: 93.05%
  Inhibition 2: 75.46%
  Inhibition 3: 68.14%
  Inhibition 4: 50.11%
[10]
  Mean %: -7.22%
  Inhibition 1: 3.31%
  Inhibition 2: -5.21%
  Inhibition 3: -10.66%
  Inhibition 4: -16.31%
[11]
  Mean %: 9.85%
  Inhibition 1: 12.19%
  Inhibition 2: 4.49%
  Inhibition 3: 0.5%
  Inhibition 4: 22.22%
[12]
  Mean %: -12.51%
  Inhibition 1: -10.05%
  Inhibition 2: -18.34%
  Inhibition 3: -11.4%
  Inhibition 4: -10.24%
